Biological target: T1, human P2X4 (Homo sapiens, UniProt Q99571)
T1 construct: expressed in transfected cells
T1 sequence (Q99571 1-388): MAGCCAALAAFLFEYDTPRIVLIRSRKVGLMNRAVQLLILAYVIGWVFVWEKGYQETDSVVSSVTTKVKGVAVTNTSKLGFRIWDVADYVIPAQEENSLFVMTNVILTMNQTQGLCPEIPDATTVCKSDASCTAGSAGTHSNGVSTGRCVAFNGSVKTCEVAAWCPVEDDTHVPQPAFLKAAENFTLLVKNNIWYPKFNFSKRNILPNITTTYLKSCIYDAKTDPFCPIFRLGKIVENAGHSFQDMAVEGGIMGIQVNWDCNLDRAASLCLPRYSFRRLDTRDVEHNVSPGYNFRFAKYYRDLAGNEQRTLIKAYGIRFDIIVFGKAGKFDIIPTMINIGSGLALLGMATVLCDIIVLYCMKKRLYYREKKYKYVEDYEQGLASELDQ
Experiment: Human P2X4 HEK Cell FLIPR Assay
Type: cell-based
Conditions: HEK293 stably expressing human P2X4, agonist Bz-ATP 3 μM (EC80); for IC50: read-out: Human P2X4 HEK Cells (FLIPR Assay) avg IC50
Procedure: Compounds were tested on a HEK293 cell line stably expressing human P2X4. Cells were cultured on poly-D-lysine-coated 384-well plates at a density of 15,000 cells/well and incubated overnight at 37° C., 5% CO2. P2X4 function was assessed by measuring intracellular calcium fluxes caused by Benzoylbenzoyl-ATP (Bz-ATP) using the calcium-chelating dye Fluo8-AM (Molecular Devices) with the Fluorescent Imaging Plate Reader Tetra (FLIPR^Tetra; Molecular Devices CA). On the day of the assay, the medium was removed and the cells were incubated for 30 min at 37° C. and 5% CO2 in 30 μl of dye buffer (Hank's balanced salt solution, 10 mM HEPES, 1.8 mM CaCl2, 1 mM MgCl2, 2 mM probenecid, 5 mM D-glucose monohydrate, 5 μM Fluo8-AM, pH=7.4). Compounds diluted in probenecid buffer (Hank's balanced salt solution, 10 mM HEPES, 1.8 mM CaCl2, 1 mM MgCl2, 2 mM probenecid, 5 mM D-glucose monohydrate, pH=7.4) at ten concentrations ranging from 25 μM to 1 nM (final concentration) were dispensed and incubated for 30 min at room temperature. […] The final assay volume was 50 μl and final DMSO concentration was 0.5%.
The fluorescence intensity reflecting intracellular calcium changes was recorded before and after Bz-ATP addition, at an excitation and emission wavelengths of 470-495 nm and 515-575 nm respectively.
The compounds were tested in triplicates and fluorescence intensity raw data normalized to the agonist control and fitted to the four-parameter logistic equation:
Y=Bottom+(Top−Bottom)/(1+10^((Log IC50−X)*HillSlope))
Assay plate acceptance was based on the signal window (S/B)[…] and the reference compound pIC50 within ±3σ the mean of historic pIC50 of the compound. Failure to meet two of the three criteria determined exclusion of the plate's results.

| Human P2X4 HEK Cells (FLIPR Assay) avg Efficacy | IC50 | SMILES |
| --- | --- | --- |
| 94% | 289 nM | CC(=O)N(c1cc(NC(=O)Cc2cccc(F)c2Cl)ccn1)c1cccc(F)c1F [Example 124, N-{4-[2-(2-chloro-3-fluorophenyl)acetamido]pyridin-2-yl}-N-(2,3-difluorophenyl)acetamide] |
| 95% | 577 nM | CC(=O)N(c1cc(NC(=O)Cc2c(Cl)cccc2Cl)ccn1)c1cccc(F)c1F [Example 125, N-{4-[2-(2,6-dichlorophenyl)acetamido]pyridin-2-yl}-N-(2,3-difluorophenyl)acetamide] |
| 99% | 504 nM | CC(=O)N(c1cccc(Cl)c1)c1cc(NC(=O)Cc2c(Cl)cccc2Cl)ccn1 [Example 134, N-(3-chlorophenyl)-N-{4-[2-(2,6-dichlorophenyl)acetamido]pyridin-2-yl}acetamide] |
| 94% | 310 nM | CC(=O)N(c1cc(F)cc(Cl)c1)c1cc(NC(=O)Cc2ccccc2Cl)ccn1 [Example 136, N-(3-chloro-5-fluorophenyl)-N-{4-[2-(2-chlorophenyl)acetamido]pyridin-2-yl}acetamide] |
| 104% | 290 nM | CC(=O)N(c1cc(F)cc(Cl)c1)c1cc(NC(=O)Cc2ccc(F)cc2Cl)ccn1 [Example 137, N-(3-chloro-5-fluorophenyl)-N-{4-[2-(2-chloro-4-fluorophenyl)acetamido]pyridin-2-yl)acetamide] |
| 96% | 316 nM | CC(=O)N(c1cc(F)cc(Cl)c1)c1cc(NC(=O)Cc2cccc(F)c2Cl)ccn1 [Example 138, N-(3-chloro-5-fluorophenyl)-N-{4-[2-(2-chloro-3-fluorophenyl)acetamido]pyridin-2-yl}acetamide] |
| 100% | 356 nM | CC(=O)N(c1cc(F)cc(Cl)c1)c1cc(NC(=O)Cc2c(Cl)cccc2Cl)ccn1 [Example 139, N-(3-chloro-5-fluorophenyl)-N-{4-[2-(2,6-dichlorophenyl)acetamido]pyridin-2-yl}acetamide] |
| 105% | 271 nM | CC(=O)N(c1cc(F)cc(Cl)c1)c1cc(NC(=O)Cc2c(F)cccc2Cl)ccn1 [Example 140, N-(3-chloro-5-fluorophenyl)-N-{4-[2-(2-chloro-6-fluorophenyl)acetamido]pyridin-2-yl)acetamide] |
| 98% | 234 nM | CC(=O)N(c1cc(F)cc(C#N)c1)c1cc(NC(=O)Cc2ccccc2Cl)ccn1 [Example 145, N-{4-[2-(2-Chlorphenyl)acetamido]pyridin-2-yl}-N-(3-cyan-5-fluorphenyl)acetamide] |
| 103% | 337 nM | CC(=O)N(c1cc(F)cc(C#N)c1)c1cc(NC(=O)Cc2c(Cl)cccc2Cl)ccn1 [Example 146, N-(3-Cyan-5-fluorphenyl)-N-{4-[2-(2,6-dichlorphenyl)acetamido]pyridin-2-yl}acetamide] |
| 97% | 384 nM | CC(=O)N(c1cc(F)cc(C#N)c1)c1cc(NC(=O)Cc2cccc(F)c2Cl)ccn1 [Example 147, N-{4-[2-(2-Chlor-3-fluorphenyl)acetamido]pyridin-2-yl}-N-(3-cyan-5-fluorphenyl)acetamide] |
| 96% | 436 nM | CC(=O)N(c1cc(F)cc(C#N)c1)c1cc(NC(=O)Cc2c(F)cccc2Cl)ccn1 [Example 148, N-{4-[2-(2-Chlor-6-fluorphenyl)acetamido]pyridin-2-yl}-N-(3-cyan-5-fluorphenyl)acetamide] |
| 100% | 450 nM | CC(=O)N(c1cc(F)cc(C#N)c1)c1cc(NC(=O)Cc2ccc(F)cc2Cl)ccn1 [Example 149, N-{4-[2-(2-Chlor-4-fluorphenyl)acetamido]pyridin-2-yl}-N-(3-cyan-5-fluorphenyl)acetamide] |
| 102% | 297 nM | CC(=O)N(c1cc(NC(=O)Cc2ccccc2Cl)ccn1)c1ccc(F)cc1Cl [Example 150, N-(2-Chlor-4-fluorphenyl)-N-{4-[2-(2-chlorphenyl)acetamido]pyridin-2-yl}acetamide] |
| 104% | 355 nM | CC(=O)N(c1cc(NC(=O)Cc2ccc(F)cc2Cl)ccn1)c1ccc(F)cc1Cl [Example 151, N-(2-Chlor-4-fluorphenyl)-N-{4-[2-(2-chlor-4-fluorphenyl)acetamido]pyridin-2-yl}acetamide] |
| 104% | 441 nM | CC(=O)N(c1cc(NC(=O)Cc2c(Cl)cccc2Cl)ccn1)c1ccc(F)cc1Cl [Example 152, N-(2-Chlor-4-fluorphenyl)-N-{4-[2-(2,6-dichlorphenyl)acetamido]pyridin-2-yl}acetamide] |
| 102% | 476 nM | CC(=O)N(c1cc(NC(=O)Cc2c(F)cccc2Cl)ccn1)c1ccc(F)cc1Cl [Example 153, N-(2-Chlor-4-fluorphenyl)-N-{4-[2-(2-chlor-6-fluorphenyl)acetamido]pyridin-2-yl}acetamide] |
| 101% | 511 nM | CC(=O)N(c1cc(NC(=O)Cc2cccc(F)c2Cl)ccn1)c1ccc(F)cc1Cl [Example 154, N-(2-Chlor-4-fluorphenyl)-N-{4-[2-(2-chlor-3-fluorphenyl)acetamido]pyridin-2-yl}acetamide] |
| 100% | 339 nM | CC(=O)N(c1ccc(S(C)(=O)=O)c(Cl)c1)c1cc(NC(=O)Cc2c(Cl)cccc2Cl)ccn1 [Example 155, N-[3-Chlor-4-(methylsulfonyl)phenyl]-N-{4-[2-(2,6-dichlorphenyl)acetamido]pyridin-2-yl)acetamide] |
| 96% | 512 nM | CC(=O)N(c1ccc(S(C)(=O)=O)c(Cl)c1)c1cc(NC(=O)Cc2cccc(F)c2Cl)ccn1 [Example 156, N-{4-[2-(2-Chlor-3-fluorphenyl)acetamido]pyridin-2-yl}-N-[3-chlor-4-(methylsulfonyl)phenyl]acetamide] |
| 97% | 644 nM | CC(=O)N(c1ccc(S(C)(=O)=O)c(Cl)c1)c1cc(NC(=O)Cc2ccccc2Cl)ccn1 [Example 157, N-[3-Chlor-4-(methylsulfonyl)phenyl]-N-{4-[2-(2-chlorphenyl)acetamido]pyridin-2-yl}acetamide] |
| 97% | 649 nM | CC(=O)N(c1ccc(S(C)(=O)=O)c(Cl)c1)c1cc(NC(=O)Cc2c(F)cccc2Cl)ccn1 [Example 158, N-{4-[2-(2-Chlor-6-fluorphenyl)acetamido]pyridin-2-yl}-N-[3-chlor-4-(methylsulfonyl)phenyl]acetamide] |
| 99% | 949 nM | CC(=O)N(c1ccc(S(C)(=O)=O)c(Cl)c1)c1cc(NC(=O)Cc2ccc(F)cc2Cl)ccn1 [Example 159, N-{4-[2-(2-Chlor-4-fluorphenyl)acetamido]pyridin-2-yl}-N-[3-chlor-4-(methylsulfonyl)phenyl]acetamide] |

— US20230257351A1, “SUBSTITUTED N-[…] HAVING P2X4 RECEPTOR ANTAGONISTIC ACTIVITY” (Bayer Aktiengesellschaft, priority 2020, published 2023)
